The values that follow come from patent US20220106596A1, “A METHOD OF GENE EDITING” (University of Washington, priority 2019, published 2022).

The subject of assay [1] is HT-1080 cells with LHSN63D530 provirus and HPRT exon3D4. In words: HPRT gene editing in HT-1080 cells infected with AAV2-HPe3 (HAT selection), effect of emetine. It is filed as cell-based, human. From the text:
(§1) The murine leukemia virus (MLV) vector LHSN63Δ53O contains a nonfunctional neomycin phosphotransferase target gene (neo) with a 53-bp deletion at nucleotide 63 of its open reading frame, a hygromycin phosphotransferase gene (hph) for selection, and a plasmid replication origin for recovering the target sites.
(§2) In some embodiments, a cell is gene edited using the HT-1080 (human fibrosarcoma cells) gene editing assay. This method uses HT-1080 neo/HPRT editing cells transduced with LHSN63Δ53O. HT-1080 cells contain an integrated copy of an MLV LHSN63Δ530 targeting locus and a 4 by deletion in the single copy, X-linked HPRT gene at exon 3. The cells are transduced with AAV2-HSN5′ and cultured in G418 to identify neo gene-edited cells. The AAV2-HSN5′ gene targeting vector contains sequences homologous to MLV-LHSN63Δ53O with a truncated neo gene that lacks the 53 by deletion. Alternatively, HT-1080 cells are transduced with AAV2-HPe3 targeting vector and selected with HAT medium to identify HPRT gene-edited cells (See Russell et al., 2008, Human Gene Therapy, 19: 907-914 and Deyle et al., 2014, Nature Structural & Molecular Biol., 21: 969-975). Targeted clones are expanded as a polyclonal population. Untargeted control cells are generated by transducing HT-1080 cells with the MLV vector LHSNO, which is identical to LHSN63Δ53O except that it contains a functional neo gene.
(§3) To determine the effect of emetine on gene editing, experiments were performed using human HT-1080 cells with LHSN63Δ530 provirus and HPRT exon 3Δ4, infected with AAV2-HSN5′ or AAV2-HPe3. Replicate samples of cells were treated under the following conditions: • AAV (MOI 2×10^4) alone for 24 hours; • 0.125 μM emetine for 8 hours followed by the addition of AAV (MOI 2×10^4) and incubation for 24 hours; • 0.25 μM emetine for 24 hours followed by the addition of AAV (MOI 2×10^4) and incubation for 24 hours; • 0.25 μM emetine for 24 hours followed by the addition of AAV (MOI 2×10^4) and incubation with AAV for 24 hours; • 0.25 μM emetine in the presence of AAV (MOI 2×10^4) for 24 hours; • AAV (MOI-2×10^4) for 8 hours followed by the addition of 0.25 μM emetine and incubation with emetine for 23 hours; • AAV (MOI-2×10^4) for 24 hours followed by the addition of 0.25 μM emetine and incubation with emetine for 8 hours; • AAV (MOI-2×10^4) for 8 hours followed by the addition of emetine (0.25 μM) and incubation with emetine for 18 hours, removal of emetine, followed by addition of a second dosage of emetine (0.25 μM) and incubation for 16 hours; or • AAV (MOI 2×10^4) for 24 hours followed by the addition of emetine (0.25 μM) and incubation for 7 hours, removal of emetine, followed by addition of a second dosage of emetine (0.25 μM) for 2 hours.
(§4) For each experiment, 2×10^4 cells were seeded and cultured in the presence of 4×10^8 AAV. All experiments were performed in DMEM+10% FBS+pen/strep. Emetine dihydrochloride hydrate: E2375 (Sigma) was prepared in water and sterilized by filtration on 0.22 uM filter.

Assay [2] has the same test system. In words: neo gene editing in HT-1080 cells infected with AAV2-HSN5′ (G418 selection), effect of emetine. The format is cell-based, human.
From the text: as §1, §2, §3, §4

For assay [3], the system named is mouse Hepa1-6 hepatoma cells. In words: Gene editing (albumin knock-in, GFP expression by flow cytometry) with AAVDJ-mAlb-GFP. Particulars: 1000 nM emetine. The format is cell-based. Here is the method:
To determine the effect of emetine on gene editing, experiments were performed using mouse Hepa1-6 hepatoma cells using the vector AAVDJ-mAlb-GFP. Gene editing in the presence of this vector results in an albumin knock-in with resulting expression of green fluorescent protein (GFP).
On day 0, 100,000 cells were plated in 1.5 ml DMEM with 10% FBS, 100 units/mL penicillin and 100 μg/mL streptomycin. On day 1, cells were transduced with AAVDJ-mAlb-GFP (multiplicity of (MOI)—50,000) by removing the media and adding to the cells 1.5 ml of fresh media (DMEM with 10% FBS, 100 units/mL penicillin, 100 μg/mL streptomycin) containing the desired MOI of the AAVDJ-mAlb-GFP virus. For 100,000 cells, to achieve an MOI of […] were added.
On day 2, fresh medium (1.5 ml of DMEM with 10% FBS, 100 units/mL penicillin, 100 μg/mL streptomycin) with or without emetine, was added. Replicate samples were treated with no emetine, or with 30 nM emetine, 100 nM emetine or 1000 nM emetine. A control sample lacked AAV. On day 3, the media was removed and 1.5 ml of DMEM with 10% FBS, 100 units/mL penicillin, 100 μg/mL streptomycin was added to the cells. Expression of GFP was measured on days 6, 7 and 10.
Flow cytometry was used to measure GFP expression. On the day of the assay (days 6, 7 and 10) cells were trypsinized and the resulting cell pellet was resuspended in 500 μL of FACS buffer (DPBS (Dulbecco's Phosphate Buffered Saline) without Ca2+, Mg2+, and supplemented with 2% FBS, 1 mM EDTA). The resulting cell suspension was analyzed for GFP positive cells on the BD FACScanto II. For samples treated with no AAV, 0 nM emetine, 30 nM emetine, and 100 nM emetine, 100,000 cells were analyzed, and for samples treated with 1000 nM emetine, 70,000 cells were analyzed.
In general terms: A flow cytometer gives signals particle by particle.

Assay [4] has as its system mouse liver. The experiment in a line: In vivo gene editing of mouse liver with AAVDj-mALB-luciferase (bioluminescence imaging). Further details: species or system C57BL/6 mice. Particulars: emetine 5 mg/kg intraperitoneal, days 1-5, FIG. 3. Here is the method: To determine the effect of emetine on gene editing in vivo, experiments were performed using C57BL/6 mice.
[…]. On day 0, 5 mice (Group I), were given AAVDj-mALB-luciferase vector at an amount of 3×10^11 vg/mouse by retro orbital injection. Gene editing of the AAVDj-mALB-luciferase vector results in an albumin locus knock-in and luciferase expression. 5 mice (Group 2) were injected with AAVDj-mALB-luciferase vector, at an amount of 3×10^11 vg/mouse by retro orbital injection, and given emetine in DPBS, at a concentration of 5 mg/kg, by intraperitoneal injection. 5 mice (Group 3) were injected only with emetine at a concentration of 5 mg/kg, by intraperitoneal injection.
Emetine was administered to Groups 2 and 3 on days 1-5. On days 8, […] and 22, in vivo imaging in the presence of 15 mg/kg D-luciferin, administered by intraperitoneal injection, was performed to determine the occurrence of editing. Following D-luciferin administration, the mice were anesthetized with isoflurane and placed in an IVIS imager and the peak bioluminescence was recorded (Gornalusse et al., 2017, Nature Biotech, 35(8): 765-772). […] At days 15 and 22, a 1.6 and 1.4 fold increase, respectively, were observed.

Where [5] appears, read: 0.125 μM emetine for 8 hrs before adding AAV.
The mark [6] stands for this setting: 0.25 μM emetine for 24 hrs before adding AAV.
[7] abbreviates: 0.25 μM emetine for 24 hrs before adding AAV + 24 hrs with AAV.
The mark [8] stands for this setting: 0.25 μM emetine for 24 hrs with AAV.
The mark [9] stands for this setting: AAV for 8 hrs, then added 0.25 μM emetine for 23 hrs.
Where [10] appears, read: AAV for 8 hrs, then added emetine for 18 hrs, then removed emetine for 8 hrs, then added emetine for 16 hrs.
The mark [11] stands for this setting: AAV for 24 hrs then with 0.25 μM emetine for 8 hrs.
The mark [12] stands for this setting: AAV for 24 hrs, then emetine for 7 hrs, then removed emetine for 16 hrs, then added emetine for 2 hrs.

Consider `CC[C@H]1CN2CCc3cc(OC)c(OC)cc3[C@@H]2C[C@@H]1C[C@H]1NCCc2cc(OC)c(OC)cc21` [emetine], for which the “Fold increase in editing frequency due to emetine, % HATR/% HAR no emetine” value in assay [1] (setting [5]) was found to be 8.39 Fold; in assay [1] (setting [6]) it was 7.25 Fold; in assay [1] (setting [7]), 11.19 Fold; in assay [1] (setting [8]), 8.39 Fold; in assay [1] (setting [9]), 1.99 Fold; in assay [1] (setting [10]), 2.88 Fold. Further, the “Fold increase in editing frequency due to emetine, % HATR/% HAR no emetine” value in assay [1] (setting [11]) is recorded as 1.63 Fold; in assay [1] (setting [12]), 1.56 Fold. In addition, the “Fold increase in editing frequency due to emetine, % G4158R emetine/% G418R no emetine” value in assay [2] (setting [5]) worked out at 2.40 Fold; in assay [2] (setting [6]), 3.82 Fold; in assay [2] (setting [7]) it was 6.64 Fold; in assay [2] (setting [8]), 3.70 Fold; in assay [2] (setting [9]), 1.96 Fold; in assay [2] (setting [10]), 8.47 Fold. The results for the “Fold increase in editing frequency due to emetine, % G4158R emetine/% G418R no emetine” value in assay [2] (setting [11]) and in assay [2] (setting [12]) were 1.94 Fold and 2.63 Fold, respectively. The “increase in expression of GFP” value amounted to 22 fold in assay [3] (day 6, FIG. 2); 12 fold in assay [3] (day 7, FIG. 2); 3 fold in assay [3] (day 10, FIG. 2). Besides, the entries for the “increase in level of gene editing in vivo in mouse liver (peak bioluminescence) as compared to mice treated with AAV alone” value in assay [4] (day 8), in assay [4] (day 15) and in assay [4] (day 22) were 2.3 fold, 1.6 fold and 1.4 fold, respectively.
